# “Also recorded” adds a separate entry of the source.
# Experiments:
# [1] = system: CCM3-knockout brain endothelial cells in primary culture; assay: Immunostaining of CCM3-knockout brain endothelial cells in primary culture; format: cell-based, mouse; conditions: 48 h
# Excerpt: Endothelial cells from the CCM3-flox/flox mice (8-10 weeks old) were isolated from the brain as previously described^13. Recombination of the floxed CCM3 gene was induced by treating the cells at culture day 1 with the AdenoCre viral vector, as previously described^59. The control endothelial cells were an aliquot of the same endothelial cell preparation treated with AdenoGFP, instead of AdenoCre. The cells were then maintained in culture for up to a further 7 days before analysis, as described in the main text. Drug treatments were for 48 h before the processing of the cells. Drugs were added to confluent cells for 48 h before the indicated assays. The final concentrations used were: […] (all from Sigma-Aldrich). As all of these were dissolved in DMSO, control treatment (vehicle) was 0.1% DMSO final concentration, as for drug treatment. Cells cultured in vitro were fixed and stained as described previously^46. The following antibodies were used: […] (hamster; MAB1398Z, Millipore); anti-b-galactosidase (chicken; ab9361, Abcam); anti-VE-cadherin (rat monoclonal; 550548, BD Biosciences); anti-VE-cadherin (goat; sc-6458, Santa Cruz); anti-active-b-catenin (mouse monoclonal clone 8E7) dephosphorylated on […] and Thr41, Millipore); anti-total-b-catenin (mouse monoclonal; […] AF3158, R&D); anti-CD44 (rat; 553131, BD Biosciences); anti-ID1 (rabbit; sc-488, Santa Cruz); anti-aSMA (mouse monoclonal; […], Sigma); anti-GFP (rabbit; A-6455, Invitrogen); anti-podocalyxin (goat; AF1556, R&D); anti-phospho-histone H3 (rabbit; ab51776, Millipore); anti-CCM3 (rabbit; Eurogentec); anti-p-Smad1 (rabbit; 9516, Cell Signaling); anti-endomucin (rabbit; sc-65495, Santa Cruz); anti-α-tubulin (mouse monoclonal; T9026, Sigma).
# [2] = system: CCM3-knockout endothelial cell line; assay: rtPCR of b-catenin target gene and progenitor/EndMT markers in CCM3-knockout endothelial cell line; format: cell-based, mouse; conditions: 48 h; 135 mM sulindac sulfide, 125 mM sulindac sulfone, 200 mM silibinin, 250 mM salinomycin
# Procedure: In some experiments, endothelial cell lines from the lungs of CCM3-flox/flox mice (8-10 weeks old) were immortalized in culture through retroviral expression of polyoma middle T gene^60. […] These cells were then maintained in culture for up to 25 passages without detectable changes in the effects of this CCM3 ablation.
# Drugs were added to confluent cells for 48 h before the indicated assays. The final concentrations used were: […] (all from Sigma-Aldrich). As all of these were dissolved in DMSO, control treatment (vehicle) was 0.1% DMSO final concentration, as for drug treatment.
# RNA extraction was performed with RNeasy kits (74106; […]). The RNA (1 μg) was reverse transcribed with random hexamers (High Capacity cDNA Archive kits; Applied Biosystems). The cDNA was amplified with TaqMan gene expression assays (Applied Biosystems) using a 7900 HT thermocycler (ABI/Prism). For each sample, the expression levels were determined with the comparative threshold cycle (Ct) method, and normalized to the housekeeping genes encoding 18S and glyceraldehyde-3-phosphate dehydrogenase (GAPDH). For amplification, the following probes (Applied Biosystems) that have been validated to recognize the mouse transcripts in rtPCR were used: Axin2, Nkd1, Lef1, ccnd1, cMyc-Klf4, Ly6a, S100a4, Id1, Cdh2, Acta2, CD44. The probes to identify the CCM3 mRNA transcript were custom designed, as: forward, […] (SEQ ID No. 12); reverse, GCTCTGGCCGCTCAATCA (SEQ ID No. 13); reporter sequence, […] (SEQ ID No. 14).
structure (smiles),measurement,setting,value
"CSc1ccc(/C=C2/C(C)=C(CC(=O)O)c3cc(F)ccc32)cc1 [sulindac sulfide, (Z)-5-Fluoro-2-methyl-1-[4-(methylthio)benzylidene]indene-3-acetic acid]",VE-cadherin at cell-cell contacts,[1],more localized to cell-cell contacts
same,nuclear localization of active b-catenin,[1],strongly inhibited
same,overexpression of Klf4 and S100a4 proteins,[1],inhibition; also recorded: inhibited
same,"inhibition of transcription of Axin2, Klf4 and S100a4 (rtPCR)",[2],greatest inhibition; also recorded: most effective
